Results on one substance are retold here after paper doi:10.1101/2025.01.28.635286v2 (bioRxiv, 2025).

Holding throughout (assay type): cell-based, human
Experiment [1] has as its system phospho-cofilin (serine 3). Description: Western blot of phospho-cofilin in hCMEC/D3 monolayers. Particulars: TNF-alpha 20 ng/mL, 24 h, western blot normalized to GAPDH, p<0.05. (Immunoblotting shows a protein as a band on a membrane.)
The subject of the next experiment is phospho-dynamin. Description: Western blot of phospho-dynamin in hCMEC/D3 monolayers. As to conditions: TNF-alpha 20 ng/mL, 24 h, western blot normalized to GAPDH, p<0.05.
Another experiment relates to phospho-IRS (serine 307). Nature of the experiment: Western blot of phospho-IRS in hCMEC/D3 monolayers. Particulars: TNF-alpha 20 ng/mL, 24 h, immunoblot normalized to GAPDH, p<0.01.
Another experiment concerns hCMEC/D3 monolayers. Nature of the experiment: Confocal microscopy of FITC-Aβ42 uptake in hCMEC/D3 monolayers. Particulars: TNF-alpha 20 ng/mL.

Take tumor necrosis factor-alpha [TNF-alpha]: the “decrease of phospho-cofilin expression compared to control cells” value in experiment [1] was “approximately 2 fold”. For the same substance, the “increase in phospho-dynamin levels compared to control cells” value with phospho-dynamin is reported as around 3 fold. Besides, the “increase in phospho-IRS expression (serine 307)” value in the experiment on phospho-IRS (serine 307) was 3 fold. Further, the “FITC-Aβ42 fluorescence by confocal microscopy in comparison to control cells” value in the experiment on hCMEC/D3 monolayers was “increased FITC-Aβ42 fluorescence”.
